Measurements taken from paper PMC8080620, “Coiled-coil heterodimers with increased stability for cellular regulation and sensing SARS-CoV-2 spike protein-mediated cell fusion” (Scientific Reports, 2021).
Counter-ions that a name gives are not always drawn.

What was measured:
[1] = CD thermal denaturation scans (midpoint Tm); format: physicochemical; settings: CC of the peptide with N8 compared with N8:N7
Protocol: CD measurements were performed with a ChiraScan instrument (Applied Photophysics, UK) equipped with a Peltier thermal control block (Melcor, NJ, Laird Technologies). The final concentrations of individual peptides were […] in Tris buffer (50 mM Tris–HCl, pH 7.5, 150 mM NaCl, and 1 mM TCEP). The mixture also contained a 20 μM concentration of each peptide. All experiments were performed in a quartz cuvette (Hellma, Germany) with a path length of 1 mm. CD spectra were measured every 1 nm from 200 to 280 nm with a bandwidth of 1 nm and 0.5 s integration time. The results are the average of three scans. Temperature denaturation scans were performed by measuring the CD signal at 222 nm from 0 to 95 °C in 1 °C increments at a rate of 1 °C/min. The actual sample temperatures were measured directly in the cuvette using a temperature probe. The CD spectrum was measured at 95 °C and at 20 °C after rapid cooling.

[2] = SEC-MALS multimerization state; format: physicochemical; settings: peptides 200 µM in 50 mM Tris–HCl pH 7.5, 150 mM NaCl, 10% glycerol
Protocol: A Waters e2695 HPLC system coupled with a 2489 UV detector (Waters, MA) and a Dawn 8 + multiple-angle light scattering detector (Wyatt, CA) was used for SEC-MALS experiments. Peptides (200 μM in 50 mM Tris–HCl with a pH of 7.5, 150 mM NaCl, and 10% glycerol) were filtered using Durapore 0.1 μm centrifuge filters (Merck Millipore, Ireland) before being injected onto the Biosep SEC-S2000 column (Phenomenex, CA), with the exception of the peptide N2, which was injected in a Superdex 30 increase column (GE, IL). The mobile phases used for the separations were 50 mM Tris–HCl, pH 7.5, 150 mM NaCl and 50 mM Tris–HCl, pH 7.5, 500 mM NaCl for the Biosep SEC-S2000 column and the Superdex 30 increase column, respectively. The injection volume was 50 μl, and the flow rate was 0.5 ml/min. Data analysis was carried out with Astra 7.0 software (Wyatt, CA) utilizing the theoretical extinction coefficient calculated by ProtParam.

[3] = test system: reconstituted CC-split luciferase in HEK293T cells; experiment: CC-split luciferase displacement by externally added synthetic displacer peptide; format: cell-based, human; settings: for Displacement of cognate peptide from the N8:N7 split luciferase by added synthetic peptide: nLuc:N8 and cLuc:N7, peptide 0–50 µM in DOTAP for 2 h (Fig. S6B)
[4] = test system: CC-split transcription factor (TALE-A:CC with CC:VP16) in HEK293T cells; experiment: CC-split transcription factor reconstitution and displacement (TALE10x-Pmin-fLuc reporter); format: cell-based, human; settings: TALE-A:N8 with CC:VP16, displacer plasmid 0-50 or 0–70 ng, 48 h after transfection
[5] = test system: SARS-CoV-2 S protein-mediated cell–cell fusion; format: cell-based, human
[6] = test system: reconstituted CC-split luciferase in HEK293T cells; experiment: CC-split luciferase attenuation by co-expressed displacer peptide; format: cell-based, human
P8A [7] = biological target: T1, P8A (synthetic construct, N-terminal acetylation; C-terminal amidation); experiment: ITC
T1 chain: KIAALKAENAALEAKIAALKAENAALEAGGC

P8A [8] = biological target: T2, P8A (N-terminal acetylation; C-terminal amidation); experiment: CD thermal denaturation; 20 µM each peptide; CD signal at 222 nm, 0 to 95 °C; 50 mM Tris-HCl pH 7.5, 150 mM NaCl, 1 mM TCEP; midpoint Tm from a thermodynamic model fit; settings: both partners purified
T2 chain: T1 chain

[9] = biological target: the molecule itself; experiment: SEC-MALS; peptides 200 µM, alone or as equimolar mixture; Biosep SEC-S2000 column; 50 mM Tris-HCl pH 7.5, 150 mM NaCl
P6A [10] = biological target: T3, P6A (synthetic construct, N-terminal acetylation; C-terminal amidation); experiment: ITC
T3 chain: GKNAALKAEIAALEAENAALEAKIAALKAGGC

P6A [11] = biological target: T4, P6A (N-terminal acetylation; C-terminal amidation); experiment: CD thermal denaturation; 20 µM each peptide; CD signal at 222 nm, 0 to 95 °C; 50 mM Tris-HCl pH 7.5, 150 mM NaCl, 1 mM TCEP; midpoint Tm from a thermodynamic model fit; settings: both partners purified
T4 chain: T3 chain

N6 = biological target: T5, N6 (synthetic construct, N-terminal acetylation; C-terminal amidation); experiment: ITC
T5 chain: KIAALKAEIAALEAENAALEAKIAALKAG

N8 = biological target: T6, N8 (synthetic construct, N-terminal acetylation; C-terminal amidation); experiment: ITC
T6 chain: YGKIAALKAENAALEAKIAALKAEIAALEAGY

YG EIAALEA KNAALKA EIAALEA KNAALKA GC [P7A]
midpoint Tm of N-P-CCs lower than N-CCs [1]: more than 10 °C | Multimerization state in solution [2]: monomers | Displacement of cognate peptide from the N8:N7 split luciferase by added synthetic peptide ([3]; HEK293T): failed to displace the cognate peptide from the N8:N7 split luciferase as efficiently | Attenuation of CC-split transcription activator assembly by co-expressed NLS-tagged CC-displacer peptide [4]: failed to prevent the reconstitution of a functional transcription as efficiently

YG KIAALKA ENAALEA KIAALKA ENAALEA GGC [P8A]
Multimerization state in solution [2]: monomers

EIQQLEE KNSQLKQ EISQLEE KNQELKY G [P7SN, reference compound]
midpoint Tm of N-P-CCs lower than N-CCs [1]: more than 10 °C | Displacement of cognate peptide from the N8:N7 split luciferase by added synthetic peptide ([3]; HEK293T): failed to displace the cognate peptide from the N8:N7 split luciferase as efficiently

SPED EIQALEE KNAQLKQ EIAALEE KNQALKY G [P7, reference compound]
midpoint Tm of N-P-CCs lower than N-CCs [1]: more than 10 °C | Displacement of cognate peptide from the N8:N7 split luciferase by added synthetic peptide ([3]; HEK293T): failed to displace the cognate peptide from the N8:N7 split luciferase as efficiently | Attenuation of CC-split transcription activator assembly by co-expressed NLS-tagged CC-displacer peptide [4]: failed to prevent the reconstitution of a functional transcription as efficiently

YG ENAALEA KIAALKA KNAALKA EIAALEA GC [P5A]
Multimerization state in solution [2]: monomers

YG KNAALKA EIAALEA ENAALEA KIAALKA GGC [P6A]
Multimerization state in solution [2]: monomers

CN(C)C(=O)COC(=O)Cc1ccc(OC(=O)c2ccc(NC(=N)N)cc2)cc1 [Camostat, camostat mesylate]
Syncytia formation, luciferase activity of mixture of donor and acceptor cells [5]: reduced the amount of formed syncytia

Y EIAALEA KIAALKA KNAALKA EIAALEA GC [N5]
Displacement of cLuc:P5 from the N6:P5 split luciferase by added synthetic peptide ([3]; HEK293T, nLuc:N6 and cLuc:P5, […]): effectively displaced cLuc:P5 | N6:P5 split luciferase activity with co-expressed displacer peptide [6]: attenuated N6:P5 split luciferase activity

Y EIAALEA KNAALKA EIAALEA KIAALKA GC [N7]
Luciferase activity of CC-split luciferase after addition of synthetic CC-displacer peptide ([3]; […], peptide in DOTAP for 2 h, 48 h after transfection): debilitated CC-split luciferase assembly most efficiently | Competition of co-expressed displacer peptide with N8:N7 CC split luciferase ([6]; HEK293T, plasmid expressing displacer 0, 80, 155 ng, 48 h after transfection): failed to effectively compete | Attenuation of CC-split transcription activator assembly by co-expressed NLS-tagged CC-displacer peptide [4]: weakened the transcription activator assembly most efficiently

Ac-GEIAALEAKNAALKAEIAALEAKNAALKAGC-NH2 [P7A]
Kd (P8A [7]): 19 nM | Tm (P8A [8]): 64 °C

Ac-YGKIAALKAENAALEAKIAALKAEIAALEAGY-NH2 [N8]
stoichiometry N [9]: 2

Ac-ENAALEAKIAALKAKNAALKAEIAALEA-NH2 [P5A]
Kd (P6A [10]): 4 nM | Tm (P6A [11]): 57 °C

Ac-KIAALKAEIAALEAENAALEAKIAALKAG-NH2 [N6]
stoichiometry N [9]: 2

Ac-GEIAALEAKIAALKAKNAALKAEIAALEAGY-NH2 [N5]
Kd (N6): 1 nM | stoichiometry N [9]: 2

Ac-GEIAALEAKNAALKAEIAALEAKIAALKAGY-NH2 [N7]
Kd (N8): 10 nM | stoichiometry N [9]: 2
